According to PubChem BioAssay AID179 (DTP/NCI, 2004):
Calls of active or inactive are those of the source.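 The calls were made as follows: active = compounds giving half or more protection of infected cells from virus-caused growth loss, again on retest; inactive = the rest.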

Tested on: CEM cells HIV-1 protection, formazan growth assay
Assay: NCI AIDS Antiviral Assay
Conditions: for IC50: measured here: growth of uninfected CEM cells
In short: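 Category rules: moderately active means at least 50% protection on retest, and confirmed active means 100% protection reproducibly. The underlying data came from a formazan growth assay in HIV-1-infected CEM cells.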

| Structure (SMILES) | EC50 | IC50 | outcome |
| --- | --- | --- | --- |
| O=C(CN1CCOCC1)Nc1nc(-c2ccc(Cl)cc2)cs1 | > 107 µM | 33.1 µM | – |
| CCOC(=O)c1ccc(NCc2ccc3nc(OC)c(OC)nc3c2)cc1 | > 100 µM | > 100 µM | – |
| O=C(CCCC[n+]1ccccc1)Sc1ccccc1C(=O)NCc1ccc2c(c1)OCO2 | > 200 µM | 3.02 µM | – |
| O=C1CCC(=O)c2sccc2N1 | > 1380 µM | > 1380 µM | – |
| Cc1ccc([C@H]2CC(=O)C[C@H](c3ccc(C)cc3)C23C(=O)c2ccccc2C3=O)cc1 | > 200 µM | > 200 µM | – |
| NNC(=O)CC(=O)N(C(=O)c1ccccc1)c1ccc(Cl)cc1 | > 200 µM | > 200 µM | – |
| O=[N+]([O-])/C=C/c1cn(CCCCCn2cc(/C=C/[N+](=O)[O-])c3ccccc32)c2ccccc12 | > 200 µM | 2.63 µM | – |
| COc1ccc(C2SC(N)=Nc3c2c(C)nn3C(=O)Cc2ccccc2)cc1 (centres undefined) | 91.2 µM | 355 µM | – |
| CCCCN=C1OCc2[nH][nH]c(=O)c21 | > 1290 µM | > 1290 µM | – |
| C/C=C(/I)CBr | > 955 µM | 479 µM | – |
| Cc1ccc(S(=O)(=O)c2c(O)c3ccc(O)c(C)c3oc2=O)cc1 | > 200 µM | > 200 µM | – |
| O=c1oc2c/c(=C\c3ccc([N+](=O)[O-])cc3)c(=O)c3cccc1c3-2 | > 200 µM | 30.9 µM | – |
| NC(=O)NCOC(=S)SSSC(=S)OCNC(N)=O | > 200 µM | 32.4 µM | – |
| COc1cc(C(CC(C)=O)c2cc3c(cc2OC(C)=O)OCO3)cc(OC)c1OC (centres undefined) (tested in a mixture with another compound) | > 105 µM | 0.135 µM | – |
| CC(=O)Nc1ccc(/C=C2\SC(=S)N(/C=C(/C#N)S(=O)(=O)c3ccc(C)cc3)C2=O)cc1 | > 200 µM | 74.1 µM | – |
| CN(C)/C=C/c1c2c(nc3ccccc13)C(=O)c1ccccc1C2=O | > 100 µM | 2.24 µM | – |
| CN(C)P1(=O)N(c2ccccc2)P(=O)(N(C)C)N1c1ccccc1 (centres undefined) | > 224 µM | > 224 µM | – |
| O=C(O)CCCCCCCCCCC(=O)O | > 148 µM | > 148 µM | – |

| Structure (SMILES) | EC50 | IC50 | outcome |
| --- | --- | --- | --- |
| O=C1C=C(N2CCOCC2)c2cc(N3CCOCC3)ncc2C1=O | – | – | inactive |
| Cc1cn(C2CC(O)C(CO)C2C)c(=O)[nH]c1=O (centres undefined) | > 200 µM | > 200 µM | – |
| CNc1ccc(F)cc1SSc1cc(F)ccc1NC | > 200 µM | 4.79 µM | – |
| O=C(CC(=O)C1CCOC1=O)C(=O)Nc1ccc(Cl)cc1 (centres undefined) | – | – | inactive |
| O=C1NC23CC=CCC12CCCCCC3 (centres undefined) | > 389 µM | – | – |
| COc1ccc2nc3cccc([N+](=O)[O-])c3c(NCCCCCC(=O)O)c2c1 | > 2 µM | 0.302 µM | – |
| CCCCC1OC2O[C@]3(C)CCC4C(C)CCC([C@H]1C)C24OO3 (some centres undefined) | > 95.5 µM | 22.4 µM | – |
| CC(C)(C)OC(=O)CN1CCNCCN(CC(=O)OC(C)(C)C)CCNCC1 | > 200 µM | 13.8 µM | – |
| CCOC(=O)c1nnsc1NC(=O)NN | > 200 µM | > 200 µM | – |
| NS(=O)(=O)c1ccc(N=Cc2ccccc2O)cc1 | > 200 µM | > 200 µM | – |
| CC[N+](CC)(CCNCC(N)=O)CC(N)=O | > 200 µM | > 200 µM | – |
| CCCCN(CCCC)C1CCC(Nc2ccnc3cc(Cl)ccc23)CC1 (centres undefined) | > 200 µM | 25.7 µM | – |
| COc1ccc(-c2nnc(-c3c(C)n(C)n(-c4ccccc4)c3=O)o2)cc1 | > 200 µM | > 200 µM | – |
| CC(C)c1ccc(/C=C2\C=Cc3ccccc32)cc1 | > 40.7 µM | > 40.7 µM | – |
| O=C(O)C1CCCCC1c1c2ccc(=O)c(O)c-2oc2c(O)c(O)ccc12 (centres undefined) | 17 µM | 83.2 µM | – |
| O=[N+]([O-])c1ccc(CSC2=C(c3ccc(Cl)cc3)S/C(=C3\SC(SCc4ccc([N+](=O)[O-])cc4)=C(c4ccc(Cl)cc4)S3)S2)cc1 | > 200 µM | > 200 µM | – |
| NC(CCCC(N)P(=O)(O)c1ccccc1)P(=O)(O)c1ccccc1 (centres undefined) | > 661 µM | > 661 µM | – |
| O=C(NC(Cc1c[nH]c2ccccc12)C(=O)O)/C(=C/c1ccccc1O)NC(=O)c1ccccc1 (centres undefined) | > 200 µM | > 200 µM | – |
